Results published in patent US10822336B2, “Crystals of [2-(1-methyl-1H-pyrazol-4-yl)-6(morpholin-4-yl)-9H-purin-8-yl][4-(morpholin-4-yl)piperidin-1-yl]methanone and pharmaceutically acceptable salt thereof” (Daiichi Sankyo Company, Limited, priority 2016, dated 2020).

Experiments:
PI3Kβ = biological target: T1, PI3Kβ (Homo sapiens, UniProt P42338); test: In-vitro enzyme assay (Kinase-Glo luminescent kinase assay), PI3Kβ; type: biochemical; conditions: enzyme 2.29 μg/mL, ATP 10 μM, PIP2 60 μM, 2 hours; read-out: inhibitory activity (IC50) against PI3Kβ
T1 construct: purchased Proteros, Germany
Description: (§1) A Kinase-Glo luminescent kinase assay kit (manufactured by Promega) was used for measuring kinase activity. In this assay, the amount of ATP remaining in a solution after a kinase reaction was measured. To confirm the effect of a compound on PI3Kδ inhibition, 2.29 μg/ml recombinant PI3Kδ enzyme (Proteros, Germany) was added to a reaction mixture containing 10 mM MgCl2, 5 mM DTT, 60 μM phosphatidylinositol diphosphate (PIP2) and an assay buffer (containing 50 mM HEPES, pH7.4, 50 mM NaCl, 0.05% CHAPS) supplemented with 10 μM ATP in a final volume of 15 μl/well, in the presence and absence of compound (I), in a 384-well plate. The reaction mixture was incubated at room temperature for 2 hours. At the end of the incubation period, the same volume of Kinase-Glo plus (Promega, V3772) was added per well. After the reaction mixture was incubated at room temperature for 10 minutes in a dark place, emission was measured. The results were calculated by measuring the emission unit of the test sample relative to a blank containing no enzyme.
(§2) Using specific recombinant enzymes (Proteros, Germany) PI3Kα, PI3Kβ and PI3Kγ, inhibitory activities of compound (I) against each of the kinases were examined. The assay conditions of kinases (PI3Kα, PI3Kβ, PI3Kγ and PI3Kδ) were as follows.

[1] = system: mitogen-induced IFN-γ release in mouse splenocytes; test: Phytohaemagglutinin (PHA) inducible interferon (IFN)-gamma release in mouse splenocytes; type: cell-based; conditions: Splenocyte; C57BL/6 mouse splenocytes, PHA 10 μg/ml, 48 hours, ELISA; read-out: activity (IC50), inhibition of IFN-γ release
Description: Phytohaemagglutinin (PHA) Inducible Interferon (IFN)-Gamma Release in Mouse Splenocytes
In a cell based assay system, the effect of a compound on mitogen-induced IFN-γ release in mouse splenocytes was evaluated [Blood (2010) 115: 2203 to 2213 pages; Current Protocols in Immunology (2004) 3.12.1 to 3.12.20].
Mouse splenocytes were obtained from the spleen of a C57BL/6 mouse and seeded in a 96-well tissue culture plate at a density of 250,000 cells/well. The splenocytes were treated with the compound (I), and thereafter, stimulated with PHA (10 μg/ml) for 48 hours. In this manner, an effect of compound (I) on inhibition of IFN-γ release was evaluated. The IFN-γ release in the cell culture supernatant was quantified by ELISA in accordance with the manufacturer's protocol (BD Biosciences, #555138).

PI3Kα = biological target: T2, PI3Kα (Homo sapiens, UniProt P42336); test: In-vitro enzyme assay (Kinase-Glo luminescent kinase assay), PI3Kα; type: biochemical; conditions: enzyme 2.29 μg/mL, ATP 10 μM, PIP2 60 μM, 2 hours; read-out: inhibitory activity (IC50) against PI3Kα
T2 construct: purchased Proteros, Germany
Description: as §1, §2

PI3Kγ = biological target: T3, PI3Kγ (Homo sapiens, UniProt P48736); test: In-vitro enzyme assay (Kinase-Glo luminescent kinase assay), PI3Kγ; type: biochemical; conditions: enzyme 2.29 μg/mL, ATP 10 μM, PIP2 60 μM, 2 hours; read-out: inhibitory activity (IC50) against PI3Kγ
T3 construct: purchased Proteros, Germany
Description: as §1, §2

[2] = system: Ovalbumin-induced airway eosinophilia; test: Ovalbumin-induced airway eosinophilia model in Brown Norway rat; type: in vivo; conditions: Eosinophil; bid, oral gavage, male Brown Norway rat, 48 hours after ovalbumin challenge; read-out: ED50 value (eosinophils in bronchoalveolar lavage fluid)
Description: Ovalbumin-Induced Airway Eosinophilia Model in Brown Norway Rat
The protocol used herein was described in Clin. Exp. Immunol., 2001; 126: 9 to 15 pages and J. Pharmacol. Exp. Ther., 2011; 337: 145 to 54 pages.
A male Brown Norway rat was sensitized by intraperitoneally injecting a suspension (in 0.9% physiological saline sterilized) of ovalbumin (1 mg) and aluminum hydroxide (100 mg) on Day 0 and Day 7. On Day 14, the compound (I) was administered to the rat by oral gavage. One hour after the oral administration, the animal was housed in a Perspex chamber and exposed to 5% ovalbumin aerosol for 10 minutes. The compound (I) was administered once or twice a day on Day 14 and Day 15. Forty eight hours after ovalbumin challenge, the animal was euthanized and bronchoalveolar lavage fluid was collected. The cell suspension was treated, and the absolute number of eosinophils were counted.

[3] = Method for examining solubility (JP1, JP2); type: physicochemical; conditions: pH 1.2, simulated gastric fluid, thermodynamic from solid; Solution 1 (JP1) according to the Japanese Pharmacopoeia, room temperature
Description: Method for Examining Solubility
A 10 mmol/L solution of the compound (I) in DMSO was prepared. The 10 mmol/L DMSO stock solution (100 μL) was dispensed to two labelled glass tubes: one for Solution 1 (JP1) according to the Japanese Pharmacopoeia and the other for Solution 2 (JP2) according to the Japanese Pharmacopoeia. DMSO was allowed to evaporate from each of the glass tubes, JP1 and JP2 solutions (500 μL) were added in the corresponding glass tubes. These glass tubes were ultrasonically treated for one minute and placed on a shaker for 30 minutes every 5 minutes at the intervals of 30 seconds. The glass tubes were placed in a dark place at room temperature for one hour and the solutions were filtered through a membrane filter. The filtrates were diluted 2 and 10 fold. The resultant test solutions were analyzed and quantified with UPLC (standard product: a 10 mmol/L solution in DMSO was serially diluted with a 50% aqueous acetonitrile solution to prepare two solutions: a 100 μmol/L standard solution and a 5 μmol/L standard solution) relative to the standard.

[4] = Oral bioavailability (BA) in rats; type: in vivo; conditions: plasma; female Wistar rat, 10.0 mg/kg oral vs 3.0 mg/kg intravenous
Description: Oral Bioavailability (BA) in Rats
(§3) To a female Wistar rat (210±10 g), the compound (I) was intravenously administered as a solution containing the compound (I) (2.0 mg/mL) in a vehicle containing polysorbate and dextrose (pH5.0) or orally as a suspension of the compound (I) (1.0 mg/mL) in methyl cellulose. The final dosage in the case of intravenous administration was 3.0 mg/body weight (1 kg) or that in the case of oral administration was 10.0 mg/body weight (1 kg). A plasma sample was analyzed for the compound (I) by the LC-MS/MS method. Pharmacokinetic parameters were estimated by moment analysis. WinNonlin software 6.1 (Pharsight) was used for estimating the PK parameters. Oral bioavailability was calculated based on dose-normalized oral exposure and intravenous plasma exposure amounts.

[5] = system: HDM-induced chronic asthma (eosinophils in bronchoalveolar lavage fluid); test: House dust mite (HDM)-induced chronic asthma model of Balb/c mouse; type: in vivo; conditions: Eosinophil; bid, oral, third to fifth week, female Balb/c mouse, 48 hours after final HDM exposure
Description: House Dust Mite (HDM)-Induced Chronic Asthma Model of Balb/c Mouse
The protocol used herein was described in Am. J. Respir. Crit. Care Med., 2004; 169: 378 to 385 pages.
A female Balb/c mouse was intranasally exposed to a purified HDM (Dermatophagoides pteronyssinus) extract at maximum for 5 successive weeks at a frequency of 5 days/week (protein (25 μg) in physiological saline (20 μl)). The compound (I) was orally administered twice a day from the third week to fifth week. Forty eight hours after the final HDM exposure, the animal was euthanized and bronchoalveolar lavage fluid was collected. The cell suspension was treated, and the absolute number of eosinophils were counted.

[6] = Oral bioavailability (BA) in mice; type: in vivo; conditions: plasma; male Swiss mouse, 10.0 mg/kg oral vs 3.0 mg/kg intravenous
Description: Oral Bioavailability (BA) in Mice
as §3, with “male Swiss mouse (23±3” for “female Wistar rat (210±10”, “(0.3” for “(2.0”

T1 sequence (P42338 whole entry, species assumed): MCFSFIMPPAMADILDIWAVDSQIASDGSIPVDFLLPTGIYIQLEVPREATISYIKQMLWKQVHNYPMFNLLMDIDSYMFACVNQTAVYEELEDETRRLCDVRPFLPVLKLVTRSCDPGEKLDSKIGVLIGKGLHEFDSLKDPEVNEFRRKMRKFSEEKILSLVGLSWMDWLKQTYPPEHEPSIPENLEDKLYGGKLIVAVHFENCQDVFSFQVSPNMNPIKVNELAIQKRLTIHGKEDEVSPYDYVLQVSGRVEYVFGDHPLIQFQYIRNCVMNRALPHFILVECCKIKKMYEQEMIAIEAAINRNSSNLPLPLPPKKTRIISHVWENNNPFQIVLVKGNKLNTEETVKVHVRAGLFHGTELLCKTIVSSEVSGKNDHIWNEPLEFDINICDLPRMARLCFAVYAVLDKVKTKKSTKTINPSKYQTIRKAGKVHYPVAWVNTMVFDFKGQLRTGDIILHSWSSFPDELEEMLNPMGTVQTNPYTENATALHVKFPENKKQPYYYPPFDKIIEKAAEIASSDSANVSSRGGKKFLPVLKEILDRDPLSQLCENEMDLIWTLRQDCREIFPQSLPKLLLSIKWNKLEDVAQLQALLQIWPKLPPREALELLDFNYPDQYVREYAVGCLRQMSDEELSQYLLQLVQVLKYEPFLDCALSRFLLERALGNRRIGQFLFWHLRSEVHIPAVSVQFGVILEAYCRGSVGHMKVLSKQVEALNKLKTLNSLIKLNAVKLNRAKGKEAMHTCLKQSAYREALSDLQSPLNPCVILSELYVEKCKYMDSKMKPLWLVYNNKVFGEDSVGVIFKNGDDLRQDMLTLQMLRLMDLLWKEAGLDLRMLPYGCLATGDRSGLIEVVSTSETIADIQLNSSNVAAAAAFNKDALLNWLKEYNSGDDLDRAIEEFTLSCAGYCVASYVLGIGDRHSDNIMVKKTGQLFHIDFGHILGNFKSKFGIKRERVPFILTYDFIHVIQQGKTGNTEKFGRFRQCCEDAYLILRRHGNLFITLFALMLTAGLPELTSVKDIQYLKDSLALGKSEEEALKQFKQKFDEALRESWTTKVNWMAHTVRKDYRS
T1 sequence (P27986 whole entry partner, species assumed): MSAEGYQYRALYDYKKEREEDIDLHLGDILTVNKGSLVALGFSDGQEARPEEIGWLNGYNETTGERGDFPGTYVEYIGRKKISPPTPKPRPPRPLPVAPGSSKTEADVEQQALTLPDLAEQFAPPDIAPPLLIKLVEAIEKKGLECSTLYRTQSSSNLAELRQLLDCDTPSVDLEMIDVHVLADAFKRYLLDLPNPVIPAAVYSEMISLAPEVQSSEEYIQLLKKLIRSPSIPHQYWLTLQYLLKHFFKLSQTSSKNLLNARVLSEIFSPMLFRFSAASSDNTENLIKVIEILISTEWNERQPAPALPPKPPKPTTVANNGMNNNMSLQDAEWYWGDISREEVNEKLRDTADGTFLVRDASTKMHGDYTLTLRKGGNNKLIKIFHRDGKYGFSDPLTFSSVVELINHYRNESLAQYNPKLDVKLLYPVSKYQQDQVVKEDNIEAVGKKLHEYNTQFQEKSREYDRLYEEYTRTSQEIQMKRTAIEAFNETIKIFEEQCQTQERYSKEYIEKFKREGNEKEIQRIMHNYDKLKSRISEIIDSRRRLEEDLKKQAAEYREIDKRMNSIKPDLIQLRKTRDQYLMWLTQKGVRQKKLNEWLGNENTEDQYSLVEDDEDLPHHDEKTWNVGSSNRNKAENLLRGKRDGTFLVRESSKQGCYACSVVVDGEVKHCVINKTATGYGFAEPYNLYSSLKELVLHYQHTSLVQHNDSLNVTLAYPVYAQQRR
T3 sequence (P48736 whole entry, species assumed): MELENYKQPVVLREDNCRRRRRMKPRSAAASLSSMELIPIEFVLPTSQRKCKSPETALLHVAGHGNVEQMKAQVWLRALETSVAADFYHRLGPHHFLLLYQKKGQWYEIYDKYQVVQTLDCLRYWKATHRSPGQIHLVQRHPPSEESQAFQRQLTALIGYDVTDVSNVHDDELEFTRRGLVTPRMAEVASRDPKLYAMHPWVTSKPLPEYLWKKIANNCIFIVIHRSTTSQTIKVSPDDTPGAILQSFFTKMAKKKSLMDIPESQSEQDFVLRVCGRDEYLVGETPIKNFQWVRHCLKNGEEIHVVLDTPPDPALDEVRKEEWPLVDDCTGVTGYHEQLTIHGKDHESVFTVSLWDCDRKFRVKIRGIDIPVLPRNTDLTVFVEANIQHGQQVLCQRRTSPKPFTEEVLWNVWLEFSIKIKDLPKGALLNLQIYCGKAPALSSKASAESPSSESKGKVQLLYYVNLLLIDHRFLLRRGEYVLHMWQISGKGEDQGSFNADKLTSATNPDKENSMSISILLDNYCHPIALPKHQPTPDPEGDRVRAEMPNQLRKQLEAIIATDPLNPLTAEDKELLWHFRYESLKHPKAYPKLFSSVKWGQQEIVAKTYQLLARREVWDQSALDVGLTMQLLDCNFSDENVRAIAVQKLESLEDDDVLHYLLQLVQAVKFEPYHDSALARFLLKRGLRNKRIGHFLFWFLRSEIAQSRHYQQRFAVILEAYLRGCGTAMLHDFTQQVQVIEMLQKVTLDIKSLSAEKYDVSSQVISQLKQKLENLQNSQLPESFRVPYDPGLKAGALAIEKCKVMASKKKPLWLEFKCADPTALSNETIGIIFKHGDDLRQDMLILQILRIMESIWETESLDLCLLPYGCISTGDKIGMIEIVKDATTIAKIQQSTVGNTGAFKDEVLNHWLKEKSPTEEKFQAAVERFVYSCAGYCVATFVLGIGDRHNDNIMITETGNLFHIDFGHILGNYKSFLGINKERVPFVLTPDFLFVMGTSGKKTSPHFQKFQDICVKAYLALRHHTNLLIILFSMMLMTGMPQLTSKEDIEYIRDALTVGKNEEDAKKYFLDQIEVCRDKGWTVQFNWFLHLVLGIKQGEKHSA
T2 sequence (P42336 whole entry, species assumed): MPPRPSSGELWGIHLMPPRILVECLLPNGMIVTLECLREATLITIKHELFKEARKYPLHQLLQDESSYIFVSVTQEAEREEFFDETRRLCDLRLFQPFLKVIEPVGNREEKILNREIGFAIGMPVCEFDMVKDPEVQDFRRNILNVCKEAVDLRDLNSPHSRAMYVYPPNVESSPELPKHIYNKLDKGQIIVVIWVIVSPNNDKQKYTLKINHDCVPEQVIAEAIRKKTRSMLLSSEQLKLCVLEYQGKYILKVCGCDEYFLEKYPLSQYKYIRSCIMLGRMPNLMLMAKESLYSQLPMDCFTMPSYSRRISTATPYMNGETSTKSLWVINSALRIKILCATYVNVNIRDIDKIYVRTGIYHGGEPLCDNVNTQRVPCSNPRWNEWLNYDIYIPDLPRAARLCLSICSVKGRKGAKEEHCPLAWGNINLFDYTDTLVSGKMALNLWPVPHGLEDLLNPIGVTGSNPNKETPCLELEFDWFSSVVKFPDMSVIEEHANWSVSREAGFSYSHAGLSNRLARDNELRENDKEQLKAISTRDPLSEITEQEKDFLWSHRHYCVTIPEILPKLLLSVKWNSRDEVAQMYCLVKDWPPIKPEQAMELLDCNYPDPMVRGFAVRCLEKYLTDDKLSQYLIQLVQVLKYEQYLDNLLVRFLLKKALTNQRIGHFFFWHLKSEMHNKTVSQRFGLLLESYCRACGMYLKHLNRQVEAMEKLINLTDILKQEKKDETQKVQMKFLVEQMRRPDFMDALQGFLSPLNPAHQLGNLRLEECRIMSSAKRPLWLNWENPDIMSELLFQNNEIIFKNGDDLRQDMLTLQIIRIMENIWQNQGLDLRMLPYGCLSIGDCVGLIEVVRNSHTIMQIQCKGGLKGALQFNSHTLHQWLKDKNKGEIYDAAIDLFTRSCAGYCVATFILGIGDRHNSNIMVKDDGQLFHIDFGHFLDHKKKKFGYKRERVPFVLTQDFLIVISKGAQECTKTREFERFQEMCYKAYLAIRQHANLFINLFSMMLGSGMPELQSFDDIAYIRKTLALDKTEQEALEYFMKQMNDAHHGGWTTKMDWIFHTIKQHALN
T2 sequence (P27986 whole entry partner, species assumed): as the sequence (P27986 whole entry partner, species assumed) above

IC50 (PI3Kβ): ≥ 10 µM
IC50 [1]: 0.006 µM
IC50 (PI3Kα): ≥ 1 µM
IC50 (PI3Kγ): ≥ 1 µM
solubility at 30 min [3]: ≥ 1200 µg/mL
bioavailability [4]: 88%
bioavailability [6]: 100%
Structure (SMILES): Cn1cc(-c2nc(N3CCOCC3)c3nc(C(=O)N4CCC(N5CCOCC5)CC4)[nH]c3n2)cn1 [compound (I), [2-(1-methyl-1H-pyrazol-4-yl)-6-(morpholin-4-yl)-9H-purin-8-yl][4-(morpholin-4-yl)piperidin-1-yl]methanone]
ED50 [2]: 0.3 mg/kg
ED50 [5]: 0.1 mg/kg
